Target: T1, human mAChR M4 (Homo sapiens, UniProt P08173)
T1 construct: expressed in transfected cells
T1 sequence (P08173 1-479): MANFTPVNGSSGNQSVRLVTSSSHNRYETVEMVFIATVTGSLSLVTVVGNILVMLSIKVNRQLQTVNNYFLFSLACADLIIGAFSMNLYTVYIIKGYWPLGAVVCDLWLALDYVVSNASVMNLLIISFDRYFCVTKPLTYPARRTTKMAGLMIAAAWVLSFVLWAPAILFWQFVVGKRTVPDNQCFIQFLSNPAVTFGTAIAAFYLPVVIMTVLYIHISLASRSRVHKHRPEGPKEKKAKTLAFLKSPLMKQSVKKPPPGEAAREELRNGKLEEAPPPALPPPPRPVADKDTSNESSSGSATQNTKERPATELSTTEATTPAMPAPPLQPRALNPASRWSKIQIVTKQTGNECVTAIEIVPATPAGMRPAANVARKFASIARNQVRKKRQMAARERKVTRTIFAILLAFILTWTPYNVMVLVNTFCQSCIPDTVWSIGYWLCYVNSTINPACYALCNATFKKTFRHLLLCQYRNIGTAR
Assay: mAChR M4 cell-based functional assay (calcium mobilization, CHO-K1 hM4-Gqi5 cells)
Conditions: for Emax at 30 µM: CHO-K1, % ACh maximum at 30 μM, human M4; for EC50: positive allosteric modulator activity, increase in the EC20 acetylcholine response, CHO-K1 hM4-Gqi5 cells, read-out: Human M4 EC50; for Emax: CHO-K1
Procedure, shortened: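 Fluorescent calcium read-out (Fluo-4 AM, FDSS, 1 Hz) in hM4-Gqi5 CHO-K1 cells, 11-point 1:3 compound series. Agonism scored on compound addition, PAM activity as increase of the 144 s EC20 acetylcholine response, antagonism as decrease of the 230 s EC80 response; four-parameter logistic fits give EC50 and Emax.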

Emax at 30 µM [%]	EC50 [nM]	Structure (SMILES)	Emax [%]
86	764	Cc1cc(C#N)nnc1N1CCc2ncc(-c3cn(C)nc3C)cc2C1 [Example 323, 6-(3-(1,3-dimethyl-1H-pyrazol-4-yl)-7,8-dihydro-1,6-naphthyridin-6(5H)-yl)-5-methylpyridazine-3-carbonitrile]	
43	3140	Cc1cc(C(=O)NCc2ccc3ncccc3c2)cnc1N1CCc2ncccc2C1 [compound 68, 6-(7,8-dihydro-5H-1,6-naphthyridin-6-yl)-5-methyl-N-(6-quinolylmethyl)pyridine-3-carboxamide]	
100	185	Cc1cc(C#N)cnc1N1CCc2ncc(N3CC(C)Cn4nccc43)cc2C1 (stereo not shown) [Example 384, 5-methyl-6-(3-(6-methyl-6,7-dihydropyrazolo[1,5-a]pyrimidin-4(5H)-yl)-7,8-dihydro-1,6-naphthyridin-6(5H)-yl)nicotinonitrile]	
91	121	Cc1cc(C(=O)N2CC(F)(F)C2)nnc1N1CCc2ncc(CC(F)(F)F)cc2C1 [Example 583, (3,3-difluoroazetidin-1-yl)(5-methyl-6-(3-(2,2,2-trifluoroethyl)-7,8-dihydro-1,6-naphthyridin-6(5H)-yl)pyridazin-3-yl)methanone]	
98	263	CCn1cc(-c2cnc3c(c2)CN(c2ncc(C#N)cc2C)CC3)cn1 [compound 105, 6-[3-(1-ethylpyrazol-4-yl)-7,8-dihydro-5H-1,6-naphthyridin-6-yl]-5-methyl-pyridine-3-carbonitrile]	
91	265	Cc1cc(C#N)cnc1N1CCc2ncc(Nc3ncccc3F)cc2C1 [compound 167, 6-[3-[(3-fluoro-2-pyridyl)amino]-7,8-dihydro-5H-1,6-naphthyridin-6-yl]-5-methyl-pyridine-3-carbonitrile]	
75	3160	O=C(NCc1ccncc1)c1ccc(N2CCc3ncc(C(F)(F)F)cc3C2)nn1 [Example 511, N-(pyridin-4-ylmethyl)-6-(3-(trifluoromethyl)-7,8-dihydro-1,6-naphthyridin-6(5H)-yl)pyridazine-3-carboxamide]	
75	161	Cc1cc(C(=O)N2CC(F)C2)nnc1N1CCc2ncc(-n3cccn3)cc2C1 [Example 568, (6-(3-(1H-pyrazol-1-yl)-7,8-dihydro-1,6-naphthyridin-6(5H)-yl)-5-methylpyridazin-3-yl)(3-fluoroazetidin-1-yl)methanone]	
52	≥ 10000	Cc1cc(C(=O)NCc2ncc(F)cn2)cnc1N1CCc2ncccc2C1 [compound 147, 6-(7,8-dihydro-5H-1,6-naphthyridin-6-yl)-N-[(5-fluoropyrimidin-2-yl)methyl]-5-methyl-pyridine-3-carboxamide]	
96	234	Cc1ccc(Nc2cnc3c(c2)CN(c2ncc(C#N)cc2C)CC3)c(F)n1 [compound 132, 6-[3-[(2-fluoro-6-methyl-3-pyridyl)amino]-7,8-dihydro-5H-1,6-naphthyridin-6-yl]-5-methyl-pyridine-3-carbonitrile]	
84	2810	Cc1cc(C(=O)N(C)Cc2ccncc2)nnc1N1CCc2ncc(C(F)(F)F)cc2C1 [Example 506, N,5-dimethyl-N-(pyridin-4-ylmethyl)-6-(3-(trifluoromethyl)-7,8-dihydro-1,6-naphthyridin-6(5H)-yl)pyridazine-3-carboxamide]	
77	534	Cc1nc(Cl)c(C)c(N2CCc3ncc(Oc4ccc5c(c4)OCCO5)cc3C2)n1 [compound 206, 6-(6-chloro-2,5-dimethyl-pyrimidin-4-yl)-3-(2,3-dihydro-1,4-benzodioxin-6-yloxy)-7,8-dihydro-5H-1,6-naphthyridine]	
64	1740	CCOc1nc(N2CCc3ncc(C(F)(F)F)cc3C2)c(C)cc1C#N [Example 373, 2-ethoxy-5-methyl-6-(3-(trifluoromethyl)-7,8-dihydro-1,6-naphthyridin-6(5H)-yl)nicotinonitrile]	
89	53	Cc1cc(C#N)nnc1N1CCc2ncc(N3CCOc4ncccc43)cc2C1 [Example 391, 6-(3-(2,3-dihydro-1H-pyrido[2,3-b][1,4]oxazin-1-yl)-7,8-dihydro-1,6-naphthyridin-6(5H)-yl)-5-methylpyridazine-3-carbonitrile]	
47	2250	Cc1cc(C#N)cnc1N1CCc2ncc(N3CCCn4ccnc43)cc2C1 [Example 411, 6-(3-(6,7-dihydroimidazo[1,2-a]pyrimidin-8(5H)-yl)-7,8-dihydro-1,6-naphthyridin-6(5H)-yl)-5-methylnicotinonitrile]	
71	1160	Cc1c(C#N)nnc(N2CCc3ncc(Nc4ccccc4C(F)(F)F)cc3C2)c1C [compound 43, 4,5-dimethyl-6-[3-[2-(trifluoromethyl)anilino]-7,8-dihydro-5H-1,6-naphthyridin-6-yl]pyridazine-3-carbonitrile]	
100	170	Cc1cnccc1CNC(=O)c1cnc(N2CCc3ncc(C(F)(F)F)cc3C2)c(C)c1 [Example 445, 5-methyl-N-((3-methylpyridin-4-yl)methyl)-6-(3-(trifluoromethyl)-7,8-dihydro-1,6-naphthyridin-6(5H)-yl)nicotinamide]	
69	2870	Cc1cc(C#N)cnc1N1CCc2ncc(-c3cc(F)cc(F)c3C)cc2C1 [Example 597, 6-(3-(3,5-difluoro-2-methylphenyl)-7,8-dihydro-1,6-naphthyridin-6(5H)-yl)-5-methylnicotinonitrile]	
86	1020	Cc1cnccc1Nc1cnc2c(c1)CN(c1nnc(C#N)cc1C)CC2 [Example 619, 5-methyl-6-(3-((3-methylpyridin-4-yl)amino)-7,8-dihydro-1,6-naphthyridin-6(5H)-yl)pyridazine-3-carbonitrile]	
39	8310	Cc1nc(Cl)c(C)c(N2Cc3cc(C(F)(F)F)cnc3C(C)(C)C2)n1 [compound 257, 6-(6-chloro-2,5-dimethylpyrimidin-4-yl)-8,8-dimethyl-3-(trifluoromethyl)-5,6,7,8-tetrahydro-1,6-naphthyridine]	
90	167	Cc1cc(C#N)cnc1N1CCc2ncc(-c3c(C)noc3C)cc2C1 [compound 109, 6-[3-(3,5-dimethylisoxazol-4-yl)-7,8-dihydro-5H-1,6-naphthyridin-6-yl]-5-methyl-pyridine-3-carbonitrile]	
93	530	Cc1ccc(-c2cnc3c(c2)CN(c2nnc(C#N)c(C)c2C)CC3)cn1 [Example 298, 4,5-dimethyl-6-(3-(6-methylpyridin-3-yl)-7,8-dihydro-1,6-naphthyridin-6(5H)-yl)pyridazine-3-carbonitrile]	
116	16	Cc1cc(C(=O)N2CC(C)(F)C2)nnc1N1CCc2ncc(N3CCCn4nccc43)cc2C1 [Example 546, (6-(3-(6,7-dihydropyrazolo[1,5-a]pyrimidin-4(5H)-yl)-7,8-dihydro-1,6-naphthyridin-6(5H)-yl)-5-methylpyridazin-3-yl)(3-fluoro-3-methylazetidin-1-yl)methanone]	
92	63	Cc1nc(Cl)c(C)c(N2CCc3ncc(-c4c(C)noc4C)cc3C2)n1 [compound 197, 4-[6-(6-chloro-2,5-dimethyl-pyrimidin-4-yl)-7,8-dihydro-5H-1,6-naphthyridin-3-yl]-3,5-dimethyl-isoxazole]	
85	98	Cc1c(C#N)nnc(N2CCc3ncc(C4CC4)cc3C2)c1C [Example 317, 6-(3-cyclopropyl-7,8-dihydro-1,6-naphthyridin-6(5H)-yl)-4,5-dimethylpyridazine-3-carbonitrile]	
101	3870	Cc1cc(C(=O)N2CC3CC3C2)nnc1N1CCc2ncc(C(F)(F)F)cc2C1 (stereo not shown) [Example 504, (3-azabicyclo[3.1.0]hexan-3-yl)(5-methyl-6-(3-(trifluoromethyl)-7,8-dihydro-1,6-naphthyridin-6(5H)-yl)pyridazin-3-yl)methanone]	
102	278	Cc1cnc2c(c1)CN(c1nnc(C(=O)NCc3csc4ccccc34)c(C)c1C)CC2 [Example 470, N-(benzo[b]thiophen-3-ylmethyl)-4,5-dimethyl-6-(3-methyl-7,8-dihydro-1,6-naphthyridin-6(5H)-yl)pyridazine-3-carboxamide]	

Structure (SMILES)	Emax at 30 µM [%]	EC50 [nM]	Emax [%]
Cc1nc(Cl)c(C)c(N2CCc3ncccc3C2)n1 [compound 83, 6-(6-chloro-2,5-dimethyl-pyrimidin-4-yl)-7,8-dihydro-5H-1,6-naphthyridine]		1540	77
Cc1cc(C#N)cnc1N1CCc2ncc(Nc3cccnc3F)cc2C1 [compound 166, 6-[3-[(2-fluoro-3-pyridyl)amino]-7,8-dihydro-5H-1,6-naphthyridin-6-yl]-5-methyl-pyridine-3-carbonitrile]		45.1	106

— patent US20250230155A1 (Vanderbilt University, priority 2021, published 2025)
